This is an account of results in US20120100990A1, “4 -AMINOPICOLINATES AND THEIR USE AS HERBICIDES” (SYNGENTA CROP PROTECTION LLC, priority 2009, published 2012).

Holding throughout (assay type): in vivo
The test system of experiment [1] is Alopecurus myosuroides (ALOMY). The experiment can be described thus: Pre-emergence biological efficacy, glasshouse pot test. Conditions: 312 h, 1,000 g/ha, evaluated after 13 days, 100=total damage, 0=no damage, read-out: Percentage damage caused to weed species, pre-emergence, ALOMY. The procedure, abridged: (§1)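 Seeds sown in standard soil were sprayed one day after sowing with compound in acetone/water (50:50) plus 0.5% Tween 20 at 1000 or 250 g/ha. Pots stayed in the glasshouse at 24/16 °C day/night, 14 h light, 65% humidity. Damage was scored after 13 days (0 = none, 100 = total).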

Experiment [2] concerns Amaranthus retroflexus (AMARE). Described as above. The conditions noted are these: 312 h, 1,000 g/ha, evaluated after 13 days, 100=total damage, 0=no damage, read-out: Percentage damage caused to weed species, pre-emergence, AMARE. The procedure, abridged:
as §1

In experiment [3] the test system is Echinochloa crus-galli (ECHCG). The experiment is described as above. The conditions noted are these: 312 h, 1,000 g/ha, evaluated after 13 days, 100=total damage, 0=no damage, read-out: Percentage damage caused to weed species, pre-emergence, ECHCG. The procedure, abridged:
as §1

Experiment [4] relates to Ipomea hederaceae (IPOHE). Described as above. The conditions noted are these: Ipomoea hederacea, 312 h, 1,000 g/ha, evaluated after 13 days, 100=total damage, 0=no damage, read-out: Percentage damage caused to weed species, pre-emergence, IPOHE. The procedure, abridged:
as §1

In experiment [5] the test system is Setaria faberi (SETFA). Described as above. Conditions: 312 h, 1,000 g/ha, evaluated after 13 days, 100=total damage, 0=no damage, read-out: Percentage damage caused to weed species, pre-emergence, SETFA. An outline of the steps:
as §1

Experiment [6] relates to Solanum nigrum (SOLNI). The experiment is described as above. Conditions: 312 h, 1,000 g/ha, evaluated after 13 days, 100=total damage, 0=no damage, read-out: Percentage damage caused to weed species, pre-emergence, SOLNI. An outline of the steps: as §1
Experiment [7] concerns Alopecurus myosuroides (ALOMY). The experiment can be described thus: Post-emergence biological efficacy, glasshouse pot test. Conditions: 312 h, 1,000 g/ha, evaluated after 13 days, 100=total damage, 0=no damage, read-out: Percentage damage caused to weed species, post-emergence, ALOMY. An outline of the steps:
(§2)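 Weed seedlings raised in standard soil for 8 days in glasshouse (24/16 °C day/night, 14 h light, 65% humidity) were sprayed with compound in acetone/water (50:50) with 0.5% Tween 20 at 1000 or 250 g/ha. Damage scored visually after 13 days (0 = none, 100 = total).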

Experiment [8] concerns Amaranthus retroflexus (AMARE). The experiment is described as above. The conditions noted are these: 312 h, 1,000 g/ha, evaluated after 13 days, 100=total damage, 0=no damage, read-out: Percentage damage caused to weed species, post-emergence, AMARE. The procedure, abridged: as §2
In experiment [9] the test system is Echinochloa crus-galli (ECHCG). The experiment is described as above. The conditions noted are these: 312 h, 1,000 g/ha, evaluated after 13 days, 100=total damage, 0=no damage, read-out: Percentage damage caused to weed species, post-emergence, ECHCG. The procedure, abridged: as §2
The test system of experiment [10] is Ipomea hederaceae (IPOHE). The experiment is described as above. The conditions noted are these: Ipomoea hederacea, 312 h, 1,000 g/ha, evaluated after 13 days, 100=total damage, 0=no damage, read-out: Percentage damage caused to weed species, post-emergence, IPOHE. An outline of the steps:
as §2

Experiment [11] concerns Setaria faberi (SETFA). Described as above. The conditions noted are these: 312 h, 1,000 g/ha, evaluated after 13 days, 100=total damage, 0=no damage, read-out: Percentage damage caused to weed species, post-emergence, SETFA. The procedure, abridged:
as §2

Experiment [12] deals with Solanum nigrum (SOLNI). The experiment is described as above. The conditions noted are these: 312 h, 1,000 g/ha, evaluated after 13 days, 100=total damage, 0=no damage, read-out: Percentage damage caused to weed species, post-emergence, SOLNI. An outline of the steps:
as §2

As for `COC(=O)c1nc(Cl)cc(NCc2cnc(C)cn2)c1Cl` [Compound 81-2, 3,6-Dichloro-4-[(5-methylpyrazin-2-ylmethyl)-amino]-pyridine-2-carboxylic acid methyl ester], the pest or weed control at 1000 g/ha in experiment [1] was 70%; in experiment [2], 100%; in [3] it was 70%; in experiment [4], 90%; in experiment [5], 70%; in experiment [6] it was 100%. The pest or weed control at 1000 g/ha worked out at 40% in experiment [7]; 100% in experiment [8]; 40% in experiment [9]; 60% in [10]; 80% in [11]; 100% in experiment [12].

For the molecule `C=Cc1c(NCc2cccs2)cc(Cl)nc1C(=O)OC` [Compound 75-12, 6-Chloro-3-ethenyl-4-(thiophen-2-ylmethylamino)-pyridine-2-carboxylic acid methyl ester], the pest or weed control at 1000 g/ha in experiment [1] came to 80%; in experiment [2], 100%; in [3], 60%; in experiment [4] it was 80%; in experiment [5], 70%; in [6], 100%. In addition, the pest or weed control at 1000 g/ha turned out to be 50% in experiment [7]; 100% in [8]; 70% in [9]; 50% in experiment [10]; 80% in experiment [11]; 100% in experiment [12].

As for `C=Cc1c(NCc2ccco2)cc(-c2ccc(Cl)c(N(C)C)c2F)nc1C(=O)OC` [Compound 26-255, 6-(4-Chloro-3-dimethyl-amino-2-fluoro-phenyl)-3-ethenyl-4-[(furan-2-ylmethyl)-amino]-pyridine-2-carboxylic acid methyl ester], the pest or weed control at 1000 g/ha in [1] was found to be 10%; in experiment [2], 30%; in experiment [3] it was 20%; in experiment [4], 10%; in experiment [5], 10%; in experiment [6] it was 70%. Besides, the pest or weed control at 1000 g/ha was found to be 0% in experiment [7]; 20% in [8]; 0% in experiment [9]; 10% in experiment [10]; 0% in [11]; 70% in experiment [12].

Take `COC(=O)c1nc(Cl)c(Cl)c(NCc2ccccc2[N+](=O)[O-])c1C` [Compound 15-43, 5,6-Dichloro-3-methyl-4-[(2-nitrophenyl-methyl)-amino]-pyridine-2-carboxylic acid methyl ester]: the pest or weed control at 1000 g/ha came to 0% in [1]; 90% in experiment [2]; 0% in experiment [3]; 50% in experiment [4]; 0% in [5]; 70% in experiment [6]. Also, the pest or weed control at 1000 g/ha in experiment [7] amounted to 40%; in experiment [8] it was 100%; in [9], 10%; in experiment [10], 70%; in experiment [11], 40%; in experiment [12], 100%.
